Laboratory results taken from US10064853B2, “Compounds for use in methods for treating diseases or conditions mediated by protein disulfide isomerase” (Beth Israel Deaconess Medical Center, Inc., priority 2013, dated 2018).
Like-named read-outs stand apart in the source and are kept apart here.

Legend:
ERp57 = ERp57 (Homo sapiens (Human), UniProt P30101); assay: Insulin turbidimetric assay counter screen, ERp57; assay type: biochemical; settings: Table B; read-out: Counter Screen: Selectivity against other thiol isomerases IC50 ERp57
Experimental: (§1) PDI inhibitors were evaluated in an insulin turbidimetric assay to assess their ability to block the reductase activity of PDI. The assay measured the aggregation of insulin chains by monitoring absorbance at 650 nm as previously described in Jasuja, R. et al. Protein disulfide isomerase inhibitors constitute a new class of antithrombotic agents. J Clin Invest 122, 2104-2113 (2012) (hereinafter “Jasija”). Cleavage of disulfide bonds within insulin by PDI results in aggregation of insulin. When PDI is inhibited, there is a decrease in aggregation of insulin, and therefore a decrease in absorbance signal at 650 nm. Recombinant human PDI expressed and purified from E. coli., mixed with bovine insulin (Sigma), and added to assay plates. The reaction mixture for insulin reduction assays contained 100 mM potassium phosphate, pH 7.4; 0.75 mM DTT, 2 mM EDTA, 0.1 mM bovine insulin, and 0.8 μM purified human PDI in a total volume of 135 μl in a 96 well plate. The progress of the reaction was monitored for 30 min at 23° C. Indicated inhibitors or control buffer was added prior to the addition of enzyme at the concentrations indicated. PDI activity in the presence of compound was determined by the formula, PDI activity (%)={OD(compound+PDI+DTT)−OD(DTT)}/{OD(PDI+DTT)−OD(DTT)}×100 % enzyme inhibition={1−(ODmax(compound+enzyme)/ODmax(buffer control+enzyme)}
(§2) The insulin turbidimetric assay was used with alternative thiol isomerases to evaluate the specificity of inhibitors, as shown in Tables B and C. Other oxidoreductases used to evaluate the specificity of inhibitors include ERp5, thioredoxin (TR), and thioredoxin reductase (TRR).

Thioredoxin reductase = assay: Insulin turbidimetric assay counter screen, thioredoxin reductase; assay type: biochemical
Experimental: as §1, §2

Thioredoxin = Thioredoxin (Homo sapiens (Human), UniProt P10599); assay: Insulin turbidimetric assay counter screen, thioredoxin; assay type: biochemical
Experimental: as §1, §2

human PDI = human PDI (Homo sapiens (Human), UniProt P07237); assay: Insulin turbidimetric assay of PDI reductase activity; assay type: biochemical
Experimental: as §1
IC50 values were calculated using non-linear regression analysis.

[1] = Stability of PDI inhibitors in mouse plasma; assay type: in vitro ADME; settings: 1 μM, room temperature
Experimental: (§3) The stability of PDI inhibitors was measured in the presence of PBS pH 7.4 with 1% DMSO. PDI inhibitors were added to plasma (in triplicate at 1 μM) on six separate plates and allowed to equilibrate at room temperature for 48 hours. At each time point (0, 2, 4, 8, 24, and 48 hours), one plate was removed and an aliquot was taken out from each well and analyzed by UPLC-MS.

washed platelets = assay: Platelet aggregation (SFLLRN-induced, washed platelets); assay type: cell-based; settings: inhibition of platelet aggregation; compounds at 30 μM, 30 minutes at 37° C., SFLLRN-initiated
Experimental: Platelet Rich Plasma (PRP) was prepared from whole blood obtained from individual donors and drawn into Acid Citrate Dextrose (ACD) at 15% of total volume. PGE-1 was added to a final concentration of 0.15 µM to maintain the resting state. PRP was spun at 1000 g×10 minutes and the supernatant was discarded. The platelet pellet was resuspended in Modified HEPES-Tyrodes buffer pH 7.3. The 1× washed platelets were incubated for 20 minutes at 37° C. until they were in a quiescent state. The above washing procedure was then repeated. The 2× washed platelets were allowed to rest for 20 minutes at 37° C. Platelets were then counted and the concentration of platelets in suspension was adjusted to 200,000 platelets/µL. The 2× washed platelets were treated with compounds at 30 µM, and were incubated for 30 minutes at 37° C. Following incubation, platelets were added to a cuvette and stirred at 37° C. in a Chrono-Log Platelet Aggregometer. In order to initiate aggregation, a concentration of SFLLRN, the thrombin receptor activating peptide, sufficient to elicit 60-70% light transmittance was added to the cuvette. Therefore, a range of 2-3 µM SFLLRN was used in order to accommodate small differences in sensitivity to SFLLRN between individual donors. Prior to reading, the aggregometer was scaled so that unstimulated, washed platelets are set to 0% light transmittance, and buffer alone with no platelets is set to 100% light transmittance. The light transmittance of each sample was recorded as a measure of aggregation. Data were recorded as a single point representing maximum aggregation in the presence of compound and were compared to samples exposed to vehicle (DMSO) alone. See Jasuja

ERp5 = ERp5 (Homo sapiens (Human), UniProt Q15084); assay: Insulin turbidimetric assay counter screen, ERp5; assay type: biochemical
Experimental: as §1, §2

[2] = Stability of PDI inhibitors in human plasma; assay type: in vitro ADME; settings: 1 μM, room temperature
Experimental: as §3

[3] = Table B, read-out: Counter Screen: Selectivity against other thiol isomerases IC50 Thioredoxin reductase
[4] = Table B, read-out: Counter Screen: Selectivity against other thiol isomerases IC50 Thioredoxin
[5] = Table A, average of two independent experiments, read-out: PDI_Inhibition_ IC50
[6] = Table B, read-out: PDI_ Inhibition_ IC50
[7] = insulin reductase assay, recombinant human PDI, read-out: PDI_Inhibition_ IC50
[8] = Table B, read-out: Counter Screen: Selectivity against other thiol isomerases IC50 ERp5
[9] = Table C, read-out: Specif. (ERp5, TR, TRR): ERp5
[10] = Table C, read-out: Specif. (ERp5, TR, TRR): TRR
[11] = Table C, read-out: Specif. (ERp5, TR, TRR): TR

Chain of ERp5 (Q15084 20-440, species assumed): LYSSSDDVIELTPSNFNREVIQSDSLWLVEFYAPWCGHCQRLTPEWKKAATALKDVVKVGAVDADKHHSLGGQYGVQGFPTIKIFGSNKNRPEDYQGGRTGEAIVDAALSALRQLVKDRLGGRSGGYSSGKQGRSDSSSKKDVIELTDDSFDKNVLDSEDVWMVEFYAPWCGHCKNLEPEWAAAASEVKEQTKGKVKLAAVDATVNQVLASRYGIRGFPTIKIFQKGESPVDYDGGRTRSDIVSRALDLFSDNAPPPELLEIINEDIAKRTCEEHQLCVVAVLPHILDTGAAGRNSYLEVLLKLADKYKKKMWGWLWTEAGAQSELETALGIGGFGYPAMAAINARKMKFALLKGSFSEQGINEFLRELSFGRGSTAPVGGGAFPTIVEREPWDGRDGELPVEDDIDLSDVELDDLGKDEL
Chain of human PDI (P07237 18-508): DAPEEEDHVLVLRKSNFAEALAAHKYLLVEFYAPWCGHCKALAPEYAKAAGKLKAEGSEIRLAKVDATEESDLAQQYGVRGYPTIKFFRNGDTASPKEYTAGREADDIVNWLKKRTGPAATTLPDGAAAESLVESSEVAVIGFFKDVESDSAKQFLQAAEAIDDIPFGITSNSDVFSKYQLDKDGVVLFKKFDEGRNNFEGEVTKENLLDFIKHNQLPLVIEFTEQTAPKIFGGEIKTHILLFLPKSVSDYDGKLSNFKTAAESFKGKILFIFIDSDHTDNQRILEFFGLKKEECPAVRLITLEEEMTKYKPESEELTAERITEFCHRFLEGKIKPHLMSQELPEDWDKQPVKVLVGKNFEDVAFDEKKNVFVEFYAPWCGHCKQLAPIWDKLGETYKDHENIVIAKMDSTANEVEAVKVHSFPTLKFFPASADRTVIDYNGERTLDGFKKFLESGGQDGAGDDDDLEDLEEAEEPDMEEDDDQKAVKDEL
Chain of Thioredoxin (P10599 whole entry, species assumed): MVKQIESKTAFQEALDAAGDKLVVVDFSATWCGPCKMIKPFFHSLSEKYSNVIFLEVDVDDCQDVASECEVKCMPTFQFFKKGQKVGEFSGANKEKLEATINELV
Chain of ERp57 (P30101 25-505, species assumed): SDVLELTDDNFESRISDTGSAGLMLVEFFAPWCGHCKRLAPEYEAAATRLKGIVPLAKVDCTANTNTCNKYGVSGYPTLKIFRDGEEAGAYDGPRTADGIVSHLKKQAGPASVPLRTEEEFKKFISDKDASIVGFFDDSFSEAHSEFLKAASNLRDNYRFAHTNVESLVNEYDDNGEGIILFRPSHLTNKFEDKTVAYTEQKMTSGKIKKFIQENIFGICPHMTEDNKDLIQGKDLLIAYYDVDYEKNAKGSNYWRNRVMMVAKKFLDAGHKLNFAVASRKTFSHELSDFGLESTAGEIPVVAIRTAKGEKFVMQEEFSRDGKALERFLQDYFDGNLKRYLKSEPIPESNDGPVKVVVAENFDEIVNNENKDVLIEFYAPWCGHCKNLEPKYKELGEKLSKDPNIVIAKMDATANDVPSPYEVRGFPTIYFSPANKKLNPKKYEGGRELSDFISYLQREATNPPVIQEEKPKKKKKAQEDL

SMILES | IC50 (ERp57) | IC50 (Thioredoxin reductase; [3]) | IC50 (Thioredoxin; [4]) | IC50 (human PDI; [5]) | IC50 (human PDI; [6]) | IC50 (human PDI; [7]) | Plasma stability mouse [1] | Platelet Aggregation (washed platelets) | IC50 (ERp5; [8]) | IC50 (ERp5; [9]) | Plasma stability human [2] | IC50 (Thioredoxin reductase; [10]) | IC50 (Thioredoxin; [11]) | IC50 (human PDI; Table C, PDI, read-out: IC50)
O=C(NC1CCCC1)C1(CCOc2ccccc2)CCN(Cc2ccc(O)c(Cl)c2)CC1 [Compound 17] | > 30 µM | > 30 µM | > 30 µM | 4 µM | 4 µM | 4 µM |  |  |  |  |  |  |  | 
CCN(C)C(=O)C1(CCOc2ccccc2)CCN(Cc2ccc(O)c(Cl)c2)CC1 [Compound 16] | > 30 µM | > 30 µM | > 30 µM | 3 µM | 3 µM | 3 µM |  |  |  |  |  |  |  | 
CCOC(=O)C1(CCOc2ccccc2)CCN(Cc2ccc(OC)cc2)CC1 [Compound 6] |  |  |  | > 30 µM |  | > 30 µM |  |  |  |  |  |  |  | 
CC(C)OC(=O)C1(CCOc2ccccc2)CCN(Cc2ccc(O)c(Cl)c2)CC1 [Compound 13] | > 30 µM | > 30 µM | > 30 µM | 0.85 µM | 0.85 µM | 0.85 µM | 75.3% | 97% | > 30 µM | > 30 µM | 97.9% | > 30 µM | > 30 µM | 0.85 µM
CCOC(=O)C1(CCOc2ccccc2)CCN(C(=O)c2ccc(O)c(Cl)c2)CC1 [Compound 9] | > 30 µM | > 30 µM | > 30 µM | 2.25 µM | 2.25 µM | 2.25 µM | 100% | 100% |  | > 30 µM | 100% | > 30 µM | > 30 µM | 2.25 µM
C=CCOc1ccc(CN2CCC(CCOc3ccccc3)(C(=O)OCC)CC2)cc1Cl [Compound 5] |  |  |  | > 30 µM |  | > 30 µM |  |  |  |  |  |  |  | 
CCNC(=O)C1(CCOc2ccccc2)CCN(Cc2ccc(O)c(Cl)c2)CC1 [Compound 15] |  |  |  | > 30 µM |  | > 30 µM |  |  |  |  |  |  |  | 
CCOC(=O)C1(CCOc2ccccc2)CCN(Cc2ccc3[nH]c(=O)oc3c2)CC1 [Compound 8] |  |  |  | > 30 µM |  | > 30 µM |  |  |  |  |  |  |  | 
O=C(Nc1ccccc1)C1(CCOc2ccccc2)CCN(Cc2ccc(O)c(Cl)c2)CC1 [Compound 19] | > 30 µM | > 30 µM | > 30 µM | 22.5 µM | 22.5 µM | 22.5 µM |  |  |  |  |  |  |  | 
CC(C)(C)OC(=O)C1(CCOc2ccccc2)CCN(Cc2ccc(O)c(Cl)c2)CC1 [Compound 14] | > 30 µM | > 30 µM | > 30 µM | 0.65 µM | 0.65 µM | 0.65 µM | 95.6% | 100% | > 30 µM | > 30 µM | 98.7% | > 30 µM | > 30 µM | 0.65 µM
CCOC(=O)C1(CCOc2ccccc2)CCN(Cc2ccc(OC)c(Cl)c2)CC1 [Compound 4] | > 30 µM | > 30 µM | > 30 µM | > 30 µM | > 30 µM | > 30 µM |  |  |  |  |  |  |  | 
O=C(N1CCCC1)C1(CCOc2ccccc2)CCN(Cc2ccc(O)c(Cl)c2)CC1 [Compound 18] |  |  |  | > 30 µM |  | > 30 µM |  |  |  |  |  |  |  | 
CCOC(=O)C1(CCOc2ccccc2)CCN(Cc2ccc(O)cc2)CC1 [Compound 7] | > 30 µM | > 30 µM | > 30 µM |  | 15 µM |  |  |  |  |  |  |  |  | 
CCOC(=O)C1(CCOc2ccccc2)CCN(Cc2ccc(O)c(Cl)c2)CC1 [Compound 1, Ethyl 1-(3-chloro-4-hydroxybenzyl)-4-(2-phenoxyethyl)piperidine-4-carboxylate] | > 30 µM | > 30 µM | > 30 µM | 0.25 µM | 0.25 µM | 0.25 µM | 5.3% | 25-50% | > 30 µM | > 30 µM | 100% | > 30 µM | > 30 µM | 0.3 to 0.6 µM
